According to article PMC12615753, “Glutathione as a taste modulator: molecular mechanisms of interaction with umami and sweet taste receptors” (Food Chemistry: Molecular Sciences, 2025):

Target: T1, hTAS1R1 A170W/rTAS1R3 (UniProt Q7RTX1+Q923K1, A170W)
T1 construct: The cDNA coding region of rTAS1R3 was synthesized with optimized-codon usage for human expression; expressed in transfected cells; host or cells: HEK293T/17
T1 sequence (Q7RTX1 21-841 A170W): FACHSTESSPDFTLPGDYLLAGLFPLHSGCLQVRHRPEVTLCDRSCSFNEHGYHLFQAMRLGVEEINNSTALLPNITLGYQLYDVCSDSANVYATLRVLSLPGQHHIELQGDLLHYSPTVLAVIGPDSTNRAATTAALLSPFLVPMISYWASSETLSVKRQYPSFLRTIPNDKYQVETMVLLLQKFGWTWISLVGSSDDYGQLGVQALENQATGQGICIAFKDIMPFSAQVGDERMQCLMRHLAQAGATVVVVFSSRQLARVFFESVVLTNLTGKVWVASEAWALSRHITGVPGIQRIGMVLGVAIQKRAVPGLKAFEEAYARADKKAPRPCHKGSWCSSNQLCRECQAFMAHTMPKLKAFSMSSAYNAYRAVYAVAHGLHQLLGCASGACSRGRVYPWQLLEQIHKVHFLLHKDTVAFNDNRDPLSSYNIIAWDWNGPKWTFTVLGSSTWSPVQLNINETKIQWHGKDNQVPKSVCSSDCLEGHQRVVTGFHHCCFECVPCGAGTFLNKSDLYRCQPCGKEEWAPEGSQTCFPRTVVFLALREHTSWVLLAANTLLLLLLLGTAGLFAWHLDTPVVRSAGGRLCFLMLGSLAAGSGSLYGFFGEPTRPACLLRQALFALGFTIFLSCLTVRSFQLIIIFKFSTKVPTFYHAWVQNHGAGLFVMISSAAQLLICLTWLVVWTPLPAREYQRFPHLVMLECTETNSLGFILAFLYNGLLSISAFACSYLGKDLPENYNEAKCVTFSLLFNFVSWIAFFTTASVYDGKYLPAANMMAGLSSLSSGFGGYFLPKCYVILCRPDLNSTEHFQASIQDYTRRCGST
T1 sequence (Q923K1 21-858): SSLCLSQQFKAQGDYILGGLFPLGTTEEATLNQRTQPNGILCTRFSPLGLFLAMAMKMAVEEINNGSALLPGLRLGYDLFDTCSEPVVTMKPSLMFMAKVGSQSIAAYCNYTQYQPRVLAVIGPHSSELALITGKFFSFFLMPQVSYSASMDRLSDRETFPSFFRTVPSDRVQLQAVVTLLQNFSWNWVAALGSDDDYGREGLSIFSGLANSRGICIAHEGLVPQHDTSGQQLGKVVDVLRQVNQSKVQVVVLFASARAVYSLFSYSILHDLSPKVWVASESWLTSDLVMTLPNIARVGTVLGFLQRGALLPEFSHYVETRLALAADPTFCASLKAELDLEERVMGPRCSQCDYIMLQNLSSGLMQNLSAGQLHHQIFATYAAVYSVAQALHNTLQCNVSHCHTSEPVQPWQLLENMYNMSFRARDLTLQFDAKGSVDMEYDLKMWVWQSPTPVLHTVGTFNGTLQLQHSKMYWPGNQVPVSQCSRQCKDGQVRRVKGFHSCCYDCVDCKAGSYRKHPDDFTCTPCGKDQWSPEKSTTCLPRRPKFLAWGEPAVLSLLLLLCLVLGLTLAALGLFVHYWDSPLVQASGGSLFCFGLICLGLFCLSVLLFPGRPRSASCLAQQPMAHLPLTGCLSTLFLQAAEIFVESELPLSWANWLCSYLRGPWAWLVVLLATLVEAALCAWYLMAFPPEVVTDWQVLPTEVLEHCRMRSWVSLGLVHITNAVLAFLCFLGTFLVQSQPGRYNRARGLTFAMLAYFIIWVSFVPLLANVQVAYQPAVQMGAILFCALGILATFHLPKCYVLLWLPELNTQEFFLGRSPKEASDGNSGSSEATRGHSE
Experiment: Calcium assay, hTAS1R1 mutant co-expressed with rTAS1R3
Type: cell-based, human, rat

SMILES: N[C@@H](CCC(=O)O)C(=O)O [L-Glu, L-glutamic acid, reference compound]
- response to the agonist alone, vs WT (A170W): completely suppressed

SMILES: N[C@@H](CCC(=O)N[C@@H](CS)C(=O)NCC(=O)O)C(=O)O [GSH, γ-L-glutamyl-L-cysteinyl-glycine]
- EC50: 5.29 ± 1.56 mM
- Max ∆F/F0 (A170W, GSH): 0.09 ± 0.01
- R1 = mutant EC50/WT EC50 (A170W, GSH): 2.1
